Values quoted from earlier work in patent EP4796171A2 (Zealand Pharma A/S, priority 2017, dated 2018).

Settings: background statement; cited from earlier work

For `CC[C@H](C)[C@H](NC(=O)[C@H](Cc1ccccc1)NC(=O)[C@H](CC(=O)O)NC(=O)[C@H](CCCNC(=N)N)NC(=O)[C@H](C)NC(=O)[C@H](C)NC(=O)[C@H](CC(C)C)NC(=O)[C@H](CC(N)=O)NC(=O)[C@H](CC(=O)O)NC(=O)[C@H](CC(C)C)NC(=O)[C@@H](NC(=O)[C@@H](NC(=O)[C@H](CC(N)=O)NC(=O)[C@H](CCSC)NC(=O)[C@H](CCC(=O)O)NC(=O)[C@H](CC(=O)O)NC(=O)[C@H](CO)NC(=O)[C@H](Cc1ccccc1)NC(=O)[C@H](CO)NC(=O)CNC(=O)[C@H](CC(=O)O)NC(=O)CNC(=O)[C@@H](N)Cc1c[nH]cn1)[C@@H](C)O)[C@@H](C)CC)C(=O)N[C@@H](CC(N)=O)C(=O)N[C@@H](Cc1c[nH]c2ccccc12)C(=O)N[C@@H](CC(C)C)C(=O)N[C@H](C(=O)N[C@@H](CCC(N)=O)C(=O)N[C@H](C(=O)N[C@@H](CCCCN)C(=O)N[C@H](C(=O)N[C@H](C(=O)N[C@@H](CC(=O)O)C(=O)O)[C@@H](C)O)[C@@H](C)CC)[C@@H](C)O)[C@@H](C)CC` [Teduglutide], the Half-life is listed as “about two”.
